Laboratory results: US8865653B2, “Method of treatment for immunogenic treatment resistant cancer” (Institut Gustave Roussy, priority 2010, dated 2014)

Columns and labels:
[1] = system: U2OS cells; assay: Analysis of surface exposed CRT (HaloTag ligand, anti-CRT immune staining)
[2] = system: U2OS cells; assay: ATP release assays (quinacrine, luciferin-based); assay type: cell-based, human; conditions: 16 h post-treatment, intracellular and extracellular ATP
Method: In short, cells were labeled with 1 μM quinacrine in Krebs-Ringer solution (125 mM NaCl, 5 mM KCl, 1 mM MgSO4, 0.7 mM KH2PO4, 2 mM CaCl2, 6 mM glucose and 25 mM Hepes, pH 7.4) for 30 min at 37° C.
After incubation in quinacrine solution (as described above), cells were rinsed and resuspended in PBS containing 1 μg/ml PI. The samples were analyzed by means of a FACS Vantage (Becton Dickinson) and the data was statistically evaluated using the CellQuest Pro software (BD Biosciences).
(§1) After cell death induction, extracellular ATP was measured by luciferin-based ENLITEN ATP Assay (Promega, Madison, USA) following the manufacturer's instructions. Intracellular ATP was measured using an ATP Assay kit (Calbiochem, Darmstadt, Germany) based on luciferin-luciferase conversion following the manufacturer's instructions. For assessment of the chemoluminescent signal, the plates were read in a Fluostar luminometer (BMG Labtech).

[3] = system: U2OS cells stably expressing CRT-GFP; assay: CRT-GFP redistribution (granularity, nuclear shape) by automated microscopy; ICCB library screen; assay type: cell-based, human
Method: The data is depicted as mean±s.e.m. of quadruplicates from a representative experiment. (C) Immunofluorescene was conducted on CRT-GFP expressing cells by means of staining with anti-CRT antibody and subsequent confocal image acquisition. (D) CRT has been cloned in frame n-terminal to a HaloTag® sequence followed by a KDEL ER retention signal. (E) The impermeable HaloTag® ligand forms covalent bonds exclusively with surface exposed HaloTag®-CRT fusion protein, whereas intracellular HaloTag®-CRT remains undetected.
Compounds from the ICCB known bioactive compounds library have been tested for their capacity to induce CRT-exposure. […] The cells were incubated for 4 h and were acquired by means of automated microscopy. The data is depicted as dot plots and representative images (B).
After washing with PBS 4 viewfields per well were acquired by means of a BD pathway 855 automated microscope.

[4] = system: eIF2α; assay: Immunoblotting of eIF2α / PERK phosphorylation; assay type: cell-based
Text: (E) The phosphorylation status of eIF2α has been assessed by immunoblotting against the phosphoneoepitope Ser51 of eIF2α by means of a monoclonal antibody. A polyclonal antibody has been used to visualize whole eIF2α protein levels.

[5] = system: MCA205 cells; assay: In vivo anti-tumor vaccination with treated MCA205 cells (Example 3); conditions: s.c. injection, rechallenge with live tumor cells
Method: (F) MCA205 cells have been used for tumor vaccination in vivo. […] The mice have been rechallenged after 6 days with living cells and the tumor growth is depicted in the survival plot (n=10).
Tumor growth was evaluated for at least 50 days.

[6] = system: U2OS cells; assay type: cell-based
Method: The data is depicted as representative images (A) and (B) normalized Bax-GFP granularity values.
The data represents mean±s.e.m. of quadruplicates from a representative experiment. […] 16 h after treatment, cell death was monitored by simultaneous staining with 3,3 dihexyloxacarbocyanine iodide (DiOC6(3)) and propidium iodide (PI), and the percentage of dying (DiOC6(3)^low PI^−, open bars) and dead (DiOC6(3)^low PI^+, closed bars) cells was determined by cytofluorometry.
Cell death was quantified by cytofluorometric analysis using a FACS Vantage (Becton Dickinson, Mountain View, USA) as described previously (REF). Thus, cells were stained with 40 nM 3,3 dihexyloxacarbocyanine iodide (DiOC6(3); Molecular Probes, Eugene, Oreg., USA) for 30 min at 37° C. and concomitantly with 1 μg/ml propidium iodide (PI; Sigma Aldrich) for 30 min at 37° C. to determine the mitochondrial transmembrane potential. Data were statistically evaluated using CellQuest Pro software (Becton Dickinson, Mountain View, USA).

[7] = system: U2OS cells; assay: CRT exposure by anti-CRT surface staining and FACS (Example 4); assay type: cell-based, human; conditions: for effect of antioxidant on CRT exposure upon Digoxin and Digitoxin treatment: NAC and GSH pretreated U2OS cells; for CRT exposure: dose dependent fashion, nanomolar range
Method: (D) Cardiac glycosides at 1 μM have been analysed for CRT exposure by means of anti-CRT surface staining and FACS quantification.
(F) U2OS cells treated with the indicated doses of Digoxin and Digitoxin were analyzed for CRT exposure by means of FACS quantified surface staining.

[8] = system: U2OS cells; assay: ATP release ENLITEN assay (Example 4); assay type: cell-based, human; conditions: 15 h, dose dependent fashion, nanomolar range
Method: (H) ATP release was quantified by ENLITE 15 h after treatment in the supernatant of cells.
as §1

[9] = system: U2OS cells; assay: HMGB1 release ELISA; assay type: cell-based, human; conditions: 24 h, dose dependent fashion, nanomolar range
Method: U2OS cells were seeded in 6 well plates 24 h before the experiment. The medium was changed to fresh DMEM before the treatment was applied. Supernatants were collected at 24 h post treatment, dying tumor cells were removed by centrifugation and supernatants were collected and shock frozen in liquid nitrogen. Quantification of HMGB1 in the collected supernatants was performed by enzyme-linked immunosorbent assay according to the manufacturer's instructions.

[10] = system: breast cancer; assay: Retrospective clinical study, digoxin during chemotherapy; assay type: in vivo, human
Method: (D) D1: Overall survival of 150 breast cancer patients. 50 digoxin cotreated patients are opposed by 100 non digoxin treated controls.
We retrospectively constructed a patient database using data obtained from Institut Gustave Roussy. The patients were divided into the digoxin receiving and into the control group. For each digoxin receiving patient two control patients with identical tumor grade and chemotherapeutic treatment have been chosen. All digoxin receiving patients were treated with digoxin while receiving chemotherapy. Age at diagnosis, pathological tumor size, lymph node involvement, tumor grade, hormone receptors, endocrine treatments, occurrence of events and follow-up were extracted from medical files and recorded in the database. After generation of the patient database statistical analyses were performed in a blinded fashion. Survival rates were estimated using the Kaplan-Meier method.

[11] = system: MCA205 cells; assay: In vivo anti-tumor vaccination with MitoC / Digoxin treated MCA205 cells; design: species or system mice; conditions: for vaccination with cells treated with digoxin alone: single treatment
[12] = system: U2OS cells; assay: US Drug library screen: CRT-GFP, HMGB1-GFP, quinacrine; conditions: 1 μM, 4 h / 24 h / 16 h
[13] = system: γδ T cells; assay: DC-tumor mixed lymphocyte cultures (IL-1β, IL-17A ELISA); assay type: cell-based, mouse; conditions: 20 μg/ml IL-1RA
Method: (D) DX-treated MCA205 loaded DC/γδ T cell cross-talk was also performed in the presence of 20 μg/ml IL-1RA (Amgen) or anti-IL-23 or IL-23R neutralizing antibodies or 10 μg/ml IL-18BP or 20 μM CH-223191. IL-1β and IL-17A release was measured at 48 hrs in ELISA.
DC were propagated in Iscoves's medium (Sigma Aldrich) supplemented with J558 supernatant, 100 UI/ml Penicillin, 100 μg/ml Streptomycin, 2 mM L-glutamine, 50 μM 2-mercaptoethanol (Sigma), 10% heat-inactivated and filtered, 10% FCS and 40 ng/ml GM-CSF. DC were used between day 8 and 12 when the proportion of CD11c/MHC class II+ cells was >80%. In mixed cocultures, DC were seeded at 10^5/100 μl/well in U bottom 96 well plates. Tumor cells were treated with 25 μM DX or 2 μM MTX for 16 hrs, washed in PBS and added into these wells at 7.5×10^5/100 μl/well. 2×10^4/50 μl γδ T cells were added into the wells 12 hrs later. Supernatant was collected 48 hrs later.

[14] = system: LN resident γδ T cells; assay: Cytokine stimulation of LN-derived γδ T cells (IL-17); assay type: cell-based, mouse
Method: (A-B) Cocultures of naïve LNs derived γδ T (A-B) or TCR δ^−T (A) cells in the presence of recombinant mouse cytokines (1 μg/ml IL-1β or/and IL-23, 5 μg/ml TGF-β, 10 μg/ml IL-6) (A) with or without TCR cross-linking with anti-CD3ε mAb pre-coated plates (5 μg/ml, Clone 145-2C11) (B).
Naïve C57Bl/6 mice aged between 8-10 weeks were sacrificed and the skin-draining lymph nodes (LNs) including inguinal, popliteal, superficial cervical, axillary and brachial LNs were collected. LNs were squeezed with tweezers gently in digesting buffer, kept at 37° C. for 20 min and then pass through […] cell strainer to get single cell suspension. Dead cells were removed using Dead Cell Removal Kit (Miltenyi Biotec) before purifying γδ T cells with TCRγ/δ^+ T Cell Isolation Kit (Miltenyi Biotec). An autoMACS™ Separator was used with the recommended programs. Purity of this isolation normally reached 95%. The TCR δ^− CD3^+ cells fraction was also collected from the final separation step and was called ‘non γδ T’ cells for some experiments. Day 2 after DX or PBS treatment, 2.5×10^5 cells were injected directly into the tumor with insulin syringes in adoptive transfer setting.

[15] = system: MCA205 cells; conditions: Martins I et al, Oncogene 2010; cited from earlier work

Q: Which “surface exposure of CRT-HaloTag” value ([1]; cell-impermeable HaloTag ligand, microscopy and cytofluorometry) does the source give for `[NH2][Pt]([NH2])([Cl])[Cl]` [CDDP, cisplatin] here?
A: failed to induce the surface exposure

Q: What about the “surface immunofluorescence staining of CRT” value ([1]; non-permeabilized CRT-GFP cells) of the same molecule?
A: no immunodetectable CRT was found on the surface

Q: What about the ATP release [2] of the same molecule?
A: induced ATP release

Q: And the “CRT-GFP granularity (relocation to peripheral granular distribution)” value ([3]; 1 μM MTX, 150 μM CDDP, 300 μM OXP)?
A: not after treatment with CDDP

Q: What about the “chromatin condensation (nuclear apoptosis)” value ([3]; as efficiently as MTX or OXP) of the same molecule?
A: able to induce chromatin condensation

Q: What about the “eIF2α phosphorylation on serine 51” value ([4]; phospho-neoepitope-specific antibody) of the same molecule?
A: unable to activate

Q: And the “activating phosphorylation of PERK” value ([4]; shortly after treatment)?
A: not CDDP

Q: And the “protective anticancer immune response after vaccination with drug-treated MCA205 cells” value [5]?
A: inefficient in inducing a protective anticancer immune response

Q: And the IC50 ([6]; short-term experiments, loss of the mitochondrial transmembrane potential ΔΨm, read-out: IC50, imminent cell death)?
A: ~150 µM

Q: And the “mitochondrial perturbations (ΔΨm dissipation, Bax-GFP relocation)” value ([6]; used at their IC50)?
A: induced similar mitochondrial perturbations

Q: With `N[C@@H](CCC(=O)N[C@@H](CS)C(=O)NCC(=O)O)C(=O)O` [GSH] as the molecule, how does the “effect of antioxidant on CRT exposure upon Digoxin and Digitoxin treatment” value [7] read?
A: significantly diminished CRT exposure

Q: With `CC(=O)N[C@@H](CS)C(=O)O` [NAC] as the molecule, how does the “effect of antioxidant on CRT exposure upon Digoxin and Digitoxin treatment” value [7] read?
A: significantly diminished CRT exposure

Q: Which results are given for `C[C@H]1O[C@@H](O[C@H]2[C@@H](O)C[C@H](O[C@H]3[C@@H](O)C[C@H](O[C@H]4CC[C@@]5(C)[C@H](CC[C@@H]6[C@@H]5CC[C@]5(C)[C@@H](C7=CC(=O)OC7)CC[C@]65O)C4)O[C@@H]3C)O[C@@H]2C)C[C@H](O)[C@@H]1O` [digitoxin]?
A: ATP release [8]: ATP release; HMGB1 release [9]: HMGB1 release; CRT exposure [7]: induce CRT exposure

Q: With `C[C@H]1O[C@@H](O[C@H]2[C@@H](O)C[C@H](O[C@H]3[C@@H](O)C[C@H](O[C@H]4CC[C@@]5(C)[C@H](CC[C@@H]6[C@@H]5C[C@@H](O)[C@]5(C)[C@@H](C7=CC(=O)OC7)CC[C@]65O)C4)O[C@@H]3C)O[C@@H]2C)C[C@H](O)[C@@H]1O` [digoxin] as the molecule, how does the “overall survival effect of digoxin, anthracyclin based chemotherapy subgroup” value ([10]; 20 digoxin cotreated vs 40 controls) read?
A: completely disappears

Q: What about the “overall survival of patients that received digoxin during chemotherapy” value ([10]; 50 digoxin cotreated vs 100 controls) of the same molecule?
A: increased overall survival

Q: What about the ATP release [8] of the same molecule?
A: ATP release

Q: And the HMGB1 release [9]?
A: HMGB1 release

Q: And the “vaccinating effect, MCA cells cotreated with digoxin and MitoC” value ([11]; 20 μM MitoC with 30 μM Digoxin O/N, immunocompetent mice, rechallenge after 6 days)?
A: kept living cells of the same kind from forming a tumor

Q: And the “vaccination with cells treated with digoxin alone” value [11]?
A: led to tumor formation at the vaccination site

Q: And the “vaccination with cells treated with digoxin alone” value ([11]; listed as Digoxin)?
A: did not preclude the living cells from forming a tumor after rechallenge

Q: What about the CRT exposure [7] of the same molecule?
A: induce CRT exposure

Q: With `COc1cccc2c1C(=O)c1c(O)c3c(c(O)c1C2=O)C[C@@](O)(C(=O)CO)C[C@@H]3O[C@H]1C[C@H](N)[C@@H](O)[C@H](C)O1` [epirubicin] as the molecule, how does the “rank in screen for exposing CRT and emitting HMGB1 and ATP” value [12] read?
A: most potent in exposing CRT, and emitting HMGB1 and ATP

Q: For IL-1RA: IL-1R1/IL-1β antagonist (Amgen), which “IL-1β production in DC/γδ T cell co-culture” value [13] is on record?
A: not modified

Q: And the “DC/γδ T cell cross-talk (IL-17 production) in the presence of dying cells” value ([13]; DX-treated MCA205 loaded DC, 48 hrs)?
A: entirely abrogated the DC/γδ T cell cross-talk

Q: With TGF-β as the molecule, how does the “IL-17 production by LN-resident γδ T cells in response to recombinant cytokines” value [14] read?
A: failed to produce IL-17

Q: For tunicamycin, which “immunogenic cell death when combined with cisplatin” value [15] is on record?
A: could induce immunogenic cell death when combined with cisplatin

B1: IL-6: recombinant mouse cytokine (protein, UniProt P08505 25-211, looked up)
Interleukin-6: FPTSQVRRGDFTEDTTPNRPVYTTSQVGGLITHVLWEIVEMRKELCNGNSDCMNNDDALAENNLKLPEIQRNDGCYQTGYNQEICLLKISSGLLEYHSYLEYMKNNLKDNKKDKARVLQRDTETLIHIFNQEVKDLHKIVLPTPISNALLTDKLESQKEWLRTKTIQFILKSLEEFLKVTLRSTRQT
Q: Which “IL-17 production by LN-resident γδ T cells in response to recombinant cytokines” value [14] does the source give for B1 here?
A: failed to produce IL-17
